In US7939286B2, “Enhancing a luminescent signal” (Targeting Systems, priority 2005, dated 2011):
Several values for one entry are separate records, joined by “and”; a condition that tells them apart may be missing. Identical values can stand only once.

Tests used:
[1] = tested on: purified recombinant bacterial Gaussia luciferase; experiment: Bioluminescence of recombinant bacterial Gaussia luciferase in assay buffer (luminometer); type: biochemical, Gaussia princeps; details: for Gaussia luciferase (bacterial) bioluminescence t = 0 / Gaussia luciferase (bacterial) bioluminescence t = 10: 1.3 μM substrate in 0.5xPBS; for Gaussia luciferase (bacterial) bioluminescence t = 0: t = 0 minutes; for Gaussia luciferase (bacterial) bioluminescence t = 10: t = 10 minutes; for effect on magnitude (M at t = 1-2 minutes) of bioluminescent signal, bacterial Gluc / effect on stability (S at time = 7-10 minutes) of bioluminescent signal, bacterial Gluc: comparison: 1% EDTA to 0%, 0.2% NP40 to 0.025% or 0%, 4 μM coel. to 1.3 μM, 4 μM benzyl coel. to 1.3 μM
Procedure: Renilla luciferase is commercially available from Prolume/NanoLight Technologies, Pinetop, Ariz. Recombinant bacterial Gaussia luciferase was obtained from Prolume/Nanolight Technologies, Pinetop, Ariz. […] An amount of powdered bacterial Gaussia luciferase obtained from Nanolight Technologies, Pinetop, Ariz., was dissolved in DMEM and diluted in control assay buffer until a reading could be obtained from a luminometer.

Renilla luciferase = target: T1, Renilla luciferase (Renilla reniformis, UniProt P27652); experiment: Bioluminescence of Renilla luciferase in assay buffer (luminometer); type: biochemical; details: for Renilla luciferase bioluminescence t = 0 / Renilla luciferase bioluminescence t = 20: 1.3 μM substrate in 0.5xPBS, 0.025% NP40; for Renilla luciferase bioluminescence t = 0: t = 0 minutes; for Renilla luciferase bioluminescence t = 20: t = 20 minutes; for effect on magnitude (M at t = 1-2 minutes) of bioluminescent signal, Bacterial Rluc / effect on stability (S at time = 7-10 minutes) of bioluminescent signal, Bacterial Rluc: comparison: 1% EDTA to 0%, 0.2% NP40 to 0.025% or 0%, 4 μM coel. to 1.3 μM, 4 μM benzyl coel. to 1.3 μM; for effect of 0.2% detergent on Renilla luciferase activity (FIG. 7): 0.2% v/v detergent, T=0 and T=18 minutes; for stability of the luminescent signal in the presence of different detergents: 0.2% and 0.02% detergent
T1 construct: purchased Prolume/NanoLight Technologies, Pinetop, Ariz
T1 sequence (P27652 1-311): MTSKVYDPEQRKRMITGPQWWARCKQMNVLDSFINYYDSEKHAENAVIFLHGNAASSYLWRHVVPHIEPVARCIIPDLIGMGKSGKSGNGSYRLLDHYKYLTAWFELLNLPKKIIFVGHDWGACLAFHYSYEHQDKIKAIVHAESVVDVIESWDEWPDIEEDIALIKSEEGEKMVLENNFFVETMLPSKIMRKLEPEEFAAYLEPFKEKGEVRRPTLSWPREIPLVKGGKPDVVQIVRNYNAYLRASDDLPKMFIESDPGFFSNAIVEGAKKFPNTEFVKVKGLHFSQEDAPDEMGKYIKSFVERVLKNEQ
From the text: Renilla luciferase is commercially available from Prolume/NanoLight Technologies, Pinetop, Ariz. Recombinant bacterial Gaussia luciferase was obtained from Prolume/Nanolight Technologies, Pinetop, Ariz.

[2] = tested on: Gaussia luciferase secreted from mammalian cells; experiment: Bioluminescence of mammalian-secreted Gaussia luciferase in assay buffer (luminometer);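 for all read-outs here: mammalian cell culture supernatants containing secreted Gaussia luciferase were combined with coelenterazine assay buffer and light emission was read on a luminometer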; details: for Gaussia luciferase (mammalian) bioluminescence t = 0 / Gaussia luciferase (mammalian) bioluminescence t = 10: 1.3 μM substrate in 0.5xPBS; for Gaussia luciferase (mammalian) bioluminescence t = 0: t = 0 minutes; for Gaussia luciferase (mammalian) bioluminescence t = 10: t = 10 minutes; for effect on magnitude (M at t = 1-2 minutes) of bioluminescent signal, Mammalian Gluc / effect on stability (S at time = 7-10 minutes) of bioluminescent signal, Mammalian Gluc: comparison: 1% EDTA to 0%, 0.2% NP40 to 0.025% or 0%, 4 μM coel. to 1.3 μM, 4 μM benzyl coel. to 1.3 μM; for RLU: zero time; for effect on magnitude (M) of bioluminescent signal, Mammalian Gluc: NaCl conc. 0.075M compared to 0.5M; for bioluminescence T = 0 / bioluminescence T = 15 / bioluminescence T = 45: 0.2% detergent final concentration in 0.5×PBS; for bioluminescence T = 0 / bioluminescence T = 15 / bioluminescence T = 45 / stability of the luminescent signal in the presence of different detergents: 1.3 μM coelenterazine; for bioluminescence T = 0: T = 0 minutes; for bioluminescence T = 15: T = 15 minutes; for bioluminescence T = 45: T = 45 minutes; for stability of the luminescent signal in the presence of different detergents: 0.2% and 0.02% detergent, no EDTA, read again after 15 minutes
From the text: Reagents used in the examples include: PBS (Amresco, Solon, Ohio), PBS with Ca/Mg/K (Invitrogen, Carlsbad, Calif.), Igepal CA-630 referred to throughout as NP40 (Sigma Aldrich, St. Louis, Mo.), Standard Renilla assay reagent (Promega, Madison, Wis.), coelenterazine and benzyl coelenterazzine (Prolume/NanoLight Technologies, Pinetop, Ariz.), expression vector for Gaussia luciferase in mammals (New England Biolabs, Inc., Ipswich, Mass.), Dulbecco's minimal essential medium (DMEM) (Invitrogen, Carlsbad, Calif.) used for diluting mammalian and bacterial expressed Gaussia luciferase. Measurements of bioluminescence were carried out with a luminometer (Turner TD2020 luminometer, Turner BioSystems, Sunnyvale, Calif.).
An amount of this coelenterazine solution was added to the assay buffer to a final concentration in the range of I-10 μM. 50 μl of the assay buffer was mixed with 20 μl of sample containing luciferase and bioluminescence was measured using a luminometer.
In this example, 20 μl of mammalian Gaussia luciferase samples (cell supernatants) were mixed with 8 μl of the indicated detergents at 2% and 0.2% concentration (final concentration of detergents in assay solution was 0.2% and 0.02%) and 50 μl of the Gaussia luciferase assay reagent (0.5×PBS, no EDTA, 1.3 μM coelenterazine) and read in a Turner TD2020 Luminometer, Turner BioSystems, Sunnyvale, Calif. The samples were read again after 15 minutes to evaluate the stability of the luminescent signal in the presence of different detergents.

Firefly luciferase = Firefly luciferase (Photinus pyralis, UniProt P08659); experiment: Summary of effect on bioluminescent signal of firefly luciferase; type: biochemical
[3] = 1.3 μM substrate, 0.5×PBS, 1% EDTA, 0.025% NP40, compared with 1.3 μM coelenterazine

Firefly luciferase, sequence (P08659 whole entry): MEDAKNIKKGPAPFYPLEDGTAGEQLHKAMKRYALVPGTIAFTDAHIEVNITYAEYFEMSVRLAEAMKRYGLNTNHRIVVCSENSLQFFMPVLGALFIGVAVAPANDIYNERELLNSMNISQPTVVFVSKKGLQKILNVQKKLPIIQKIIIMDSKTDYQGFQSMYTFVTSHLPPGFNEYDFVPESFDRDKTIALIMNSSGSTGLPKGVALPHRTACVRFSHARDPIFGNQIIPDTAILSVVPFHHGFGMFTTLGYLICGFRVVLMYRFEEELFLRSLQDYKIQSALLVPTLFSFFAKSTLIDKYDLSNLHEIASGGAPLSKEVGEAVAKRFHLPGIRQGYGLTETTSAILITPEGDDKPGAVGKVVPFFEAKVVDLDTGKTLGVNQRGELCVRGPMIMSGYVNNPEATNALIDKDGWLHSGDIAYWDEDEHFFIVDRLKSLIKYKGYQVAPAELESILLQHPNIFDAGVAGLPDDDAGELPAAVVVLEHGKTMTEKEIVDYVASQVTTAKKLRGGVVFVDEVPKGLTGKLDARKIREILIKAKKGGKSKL

| Compound | effect on magnitude (M at t = 1-2 minutes) of bioluminescent signal, bacterial Gluc [1] | effect on magnitude (M at t = 1-2 minutes) of bioluminescent signal, Bacterial Rluc (Renilla luciferase) | effect on stability (S at time = 7-10 minutes) of bioluminescent signal, Bacterial Rluc (Renilla luciferase) | effect on magnitude (M at t = 1-2 minutes) of bioluminescent signal, Mammalian Gluc [2] | effect on stability (S at time = 7-10 minutes) of bioluminescent signal, Mammalian Gluc [2] | bioluminescence T = 0 ([2]; 1% EDTA) [RLU] | bioluminescence T = 15 ([2]; 1% EDTA) [RLU] | bioluminescence T = 45 ([2]; 1% EDTA) [RLU] | effect of 0.2% detergent on Renilla luciferase activity (FIG. 7) (Renilla luciferase) | other results |
| --- | --- | --- | --- | --- | --- | --- | --- | --- | --- | --- |
| Oc1ccc(Cc2nc3c(Cc4ccccc4)nc(-c4ccc(O)cc4)cn3c2O)cc1 [Coel., coelenterazine] | M up | M up | S down | M up |  |  |  |  |  | Gaussia luciferase (bacterial) bioluminescence t = 0 ([1]; 0.025% NP40): 1630 and 1837 and 1903; Gaussia luciferase (bacterial) bioluminescence t = 10 ([1]; 0.025% NP40): 58 and 59 and 60; effect of coelenterazine concentrations greater than 4 μM on luciferase activity (FIG. 4B) ([1]; 1.3-25 μM coelenterazine): no significant increases in luciferase activity; Renilla luciferase bioluminescence t = 0 (Renilla luciferase): 2296 and 1790 and 2520; Renilla luciferase bioluminescence t = 20 (Renilla luciferase): 194 and 139 and 211; Gaussia luciferase (mammalian) bioluminescence t = 0 ([2]; 0.025% NP40): 594 and 565 and 556; Gaussia luciferase (mammalian) bioluminescence t = 10 ([2]; 0.025% NP40): 31 and 30 and 29; effect of coelenterazine concentrations greater than 4 μM on luciferase activity (FIG. 4A) ([2]; 1.3-25 μM coelenterazine in 0.5×PBS, 1% EDTA, 0.025% NP40, zero time): no significant increase in luciferase activity |
| O=C(O)CN(CCN(CC(=O)O)CC(=O)O)CC(=O)O [EDTA] | M down | M down | S down | M down | S up |  |  |  |  | effect on magnitude (M at t = 1-2 minutes) of bioluminescent signal, Firefly (Firefly luciferase; 1% EDTA compared to 0%): M down |
| [Cl-].[Na+] [NaCl, sodium chloride] |  |  |  |  |  |  |  |  |  | RLU ([2]; 0.175M NaCl in adjusted 0.5 × PBS + 1% EDTA + 0.025% NP40 + 1.3 μM coel.): 1322 RLU and 1350 RLU and 1242 RLU; RLU ([2]; 0.275M NaCl in adjusted 0.5 × PBS + 1% EDTA + 0.025% NP40 + 1.3 μM coel.): 1364 RLU and 1252 RLU and 1204 RLU; RLU ([2]; 0.375M NaCl in adjusted 0.5 × PBS + 1% EDTA + 0.025% NP40 + 1.3 μM coel.): 1129 RLU and 1098 RLU and 1246 RLU; RLU ([2]; 0.5M NaCl in adjusted 0.5 × PBS + 1.3 μM coel.): 1212 RLU and 701 RLU; RLU ([2]; 0.575M NaCl in adjusted 0.5 × PBS + 1% EDTA + 0.025% NP40 + 1.3 μM coel.): 1049 RLU and 1035 RLU and 1149 RLU; RLU ([2]; 1M NaCl in adjusted 0.5 × PBS + 1.3 μM coel.): 760 RLU and 750 RLU; effect on magnitude (M) of bioluminescent signal, Mammalian Gluc ([2]; + EDTA): M same + EDTA; effect on magnitude (M) of bioluminescent signal, Mammalian Gluc ([2]; −EDTA-NP40): M down |
| CCCCCCCCCCCCOS(=O)(=O)[O-].[Na+] [SDS, sodium dodecyl sulfate] |  |  |  |  |  | 0 | 0 | 0 |  |  |
| CCCCCCCC/C=C\CCCCCCCC(=O)OCCOCC(OCCO)C1OCC(OCCO)C1OCCO (stereo not shown) [Tween80] |  |  |  |  |  | 128 | 101 | 58 | stabilizing effect |  |
| NP40 | M down | M down | S up | M down | S up | 87 | 112 | 79 | stabilizing effect | effect on stability (S at time = 7-10 minutes) of bioluminescent signal, bacterial Gluc [1]: S up; stability of the luminescent signal in the presence of different detergents (Renilla luciferase): optimum stability; stability of the luminescent signal in the presence of different detergents ([2]; 0.5×PBS): optimum stability; effect on stability (S at time = 7-10 minutes) of bioluminescent signal, Firefly (Firefly luciferase; 0.2% NP40 compared to 0.025% or 0%): S up |
| Triton X-100 |  |  |  |  |  | 59 | 80 | 63 | stabilizing effect | stability of the luminescent signal in the presence of different detergents (Renilla luciferase): optimum stability; stability of the luminescent signal in the presence of different detergents ([2]; 0.5×PBS): optimum stability |
| benzyl coelenterazine [Benzyl Coel.] | M down | M up | S up | M down | S down |  |  |  |  | Gaussia luciferase (bacterial) bioluminescence t = 0 ([1]; 0.025% NP40): 81.75 and 83 and 84; Gaussia luciferase (bacterial) bioluminescence t = 10 ([1]; 0.025% NP40): 7.9 and 8.1; suitability as substrate (FIG. 8) [1, 3]: poor substrate; effect on stability (S at time = 7-10 minutes) of bioluminescent signal, bacterial Gluc [1]: S down; Renilla luciferase bioluminescence t = 0 (Renilla luciferase): 9036 and 7687 and 7955; Renilla luciferase bioluminescence t = 20 (Renilla luciferase): 2234 and 1944 and 1359; suitability as substrate (FIG. 9) (Renilla luciferase; 1.3 μM substrate, 0.5×PBS, 0.025% NP40, 1% EDTA, compared with 1.3 μM coelenterazine): good substrate; Gaussia luciferase (mammalian) bioluminescence t = 0 ([2]; 0.025% NP40): 34 and 30 and 31; Gaussia luciferase (mammalian) bioluminescence t = 10 ([2]; 0.025% NP40): 3.49 and 3.6 and 3.66; suitability as substrate (FIG. 8) [2, 3]: poor substrate |
| deoxycholate [DOC] |  |  |  |  |  | 4 | 2 | 2 |  |  |
